The text below walks through data of ChEMBL document CHEMBL1201862, “PubChem BioAssay data set” (2004).

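Cultured in 96-well plates, cells were exposed to test compound for 48 hours across five concentrations. GI50 is the concentration that inhibits growth by half.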 The source made the active and inactive calls. No stated cut-off is given here; in the data, active = GI50 up to about 1.1 µM and inactive = higher. A value given as a limit tells only on which side of the number the result lay.

Test systems include IGROV-1; SN12C; A549; CAKI-1; HOP-92; TK-10; OVCAR-4; SNB-75; SR; KM12; SNB-78; NCI-H226; HCT-116; SK-MEL-5; NCI-H522; 786-0; LOX IMVI; HCC 2998; MDA-N; MCF7.
What all share (assay): growth of human tumour cells (NCI), 48 h

For `O=[N+]([O-])c1ccc(C2N3CCCCC3[C@H]3CCCCN23)cc1` (stereo partly specified), the GI50 with IGROV-1, with SN12C, in the assay on A549, with CAKI-1, in the assay on HOP-92 and in the assay with TK-10 was > 100 µM (inactive) in each case. Also, the GI50 in the assay on OVCAR-4, with SNB-75, with SR, in the assay with KM12, with SNB-78 and with NCI-H226 was > 100 µM (inactive) throughout. In addition, the GI50 in the assay on HCT-116, with SK-MEL-5, in the assay on NCI-H522, in the assay on 786-0 and in the assay on LOX IMVI was > 100 µM (inactive) throughout.

With `CCOc1ccccc1NC(=O)CC1C(=O)Nc2ccccc2[S+]1[O-]` (stereo unspecified), the GI50 in the assay on IGROV-1 was 51.5 µM (inactive); in the assay with SN12C it was > 100 µM (inactive); in the assay on A549, > 100 µM (inactive); in the assay on CAKI-1 it was > 100 µM (inactive); with HOP-92, 43.1 µM (inactive); with TK-10, > 100 µM (inactive). The GI50 was 32.4 µM (inactive) with OVCAR-4; > 100 µM (inactive) in the assay with SNB-75; 16.5 µM (inactive) in the assay with SR; > 100 µM (inactive) in the assay on HCC 2998; > 100 µM (inactive) in the assay on SNB-78; 60.5 µM (inactive) in the assay on NCI-H226. Further, the GI50 was > 100 µM (inactive) with HCT-116; 54.8 µM (inactive) with SK-MEL-5; 45.4 µM (inactive) with NCI-H522; 63.1 µM (inactive) in the assay on 786-0; > 100 µM (inactive) with LOX IMVI.

`CCCCCCCCCCCC[N+]12CC[N+](C)(CC1)CC2`: the GI50 was 1.98 µM (inactive) in the assay with IGROV-1; 18.3 µM (inactive) with SN12C; 54.7 µM (inactive) in the assay on A549; 11.8 µM (inactive) in the assay with CAKI-1; 14.9 µM (inactive) in the assay with HOP-92; 1.89 µM (inactive) with TK-10. The GI50 with OVCAR-4 is 44.8 µM (inactive); in the assay with SNB-75 it was 13 µM (inactive); with SR, 6.18 µM (inactive); in the assay with KM12, 7.31 µM (inactive); in the assay with HCC 2998 it was 8.09 µM (inactive); in the assay with SNB-78, 26.4 µM (inactive). Besides, the GI50 in the assay on NCI-H226 is 18.3 µM (inactive); in the assay with HCT-116, 38.7 µM (inactive); with SK-MEL-5 it was > 100 µM (inactive); in the assay with NCI-H522, 19.4 µM (inactive); with 786-0 it was 13 µM (inactive); in the assay with LOX IMVI, 19.4 µM (inactive).

In the case of `O=C1OCc2nc3c(c(-c4ccccc4C(F)(F)F)c21)C(=O)OC3`, the GI50 in the assay with IGROV-1, with SN12C, in the assay on A549, with HOP-92, in the assay with TK-10 and in the assay with SR was > 100 µM (inactive) throughout. In addition, the GI50 in the assay on KM12, in the assay on HCC 2998, in the assay on SNB-78, in the assay on HCT-116, in the assay with SK-MEL-5 and with NCI-H522 was > 100 µM (inactive) throughout. The GI50 in the assay on 786-0 and with LOX IMVI was > 100 µM (inactive) in each case.

With `O=C(NCc1ccccc1)C1C(=O)C(=O)N(Cc2ccccc2)C1=O` (stereo unspecified), the GI50 with IGROV-1 is > 100 µM (inactive); in the assay on SN12C it was > 100 µM (inactive); in the assay with A549, > 100 µM (inactive); in the assay with CAKI-1, 0.0113 µM (active); in the assay with HOP-92, > 100 µM (inactive); in the assay with TK-10 it was > 100 µM (inactive). Moreover, the GI50 with OVCAR-4, in the assay on SNB-75, with SR, in the assay with KM12, with HCC 2998 and with SNB-78 was > 100 µM (inactive) in each case. The GI50 in the assay with NCI-H226, in the assay on HCT-116, in the assay with SK-MEL-5, in the assay with NCI-H522, in the assay with 786-0 and with LOX IMVI was > 100 µM (inactive) each time.

Regarding `Cc1ccc([N+](=O)[O-])c2c(NCCCN(C)C)ccnc12`, the GI50 in the assay with IGROV-1 is 30 µM (inactive); with SN12C it was 44.3 µM (inactive); in the assay on A549 it was > 92 µM (inactive); in the assay on CAKI-1, > 89.5 µM (inactive); in the assay with HOP-92, 56.9 µM (inactive); in the assay on TK-10, > 100 µM (inactive). The GI50 with OVCAR-4 was 22.4 µM (inactive); in the assay with SNB-75, 33.7 µM (inactive); in the assay on SR, 66.4 µM (inactive); in the assay with KM12 it was 69.8 µM (inactive); in the assay on HCC 2998, 20.3 µM (inactive); in the assay on SNB-78 it was 55.7 µM (inactive). Further, the GI50 was > 100 µM (inactive) with NCI-H226; 33.5 µM (inactive) in the assay on MDA-N; 45.6 µM (inactive) in the assay with HCT-116; 29.6 µM (inactive) in the assay with SK-MEL-5; 19.6 µM (inactive) in the assay on NCI-H522; 44.8 µM (inactive) in the assay on 786-0. The figures for the GI50 in the assay with MCF7 and in the assay with LOX IMVI were 39.4 µM (inactive) and 44.2 µM (inactive), respectively.

For `COc1cc2c3c(c1OC)-c1cc4c(cc1CC3(C#N)N(C(=O)c1ccccc1)CC2)OCO4` (stereo unspecified), the GI50 was 33 µM (inactive) in the assay on IGROV-1; 50.7 µM (inactive) with SN12C; 37.5 µM (inactive) in the assay on A549; 37.9 µM (inactive) in the assay with CAKI-1; 8.39 µM (inactive) in the assay on HOP-92; 36 µM (inactive) in the assay on TK-10. In addition, the GI50 in the assay on OVCAR-4 is 15.3 µM (inactive); in the assay on SNB-75, 9.12 µM (inactive); in the assay with SR, 65.9 µM (inactive); in the assay with KM12 it was > 75.5 µM (inactive); with HCC 2998, > 100 µM (inactive); with SNB-78, 11.4 µM (inactive). The GI50 is 37.8 µM (inactive) with NCI-H226; > 100 µM (inactive) in the assay with MDA-N; 31.9 µM (inactive) in the assay with HCT-116; 29.2 µM (inactive) with SK-MEL-5; 28.2 µM (inactive) in the assay with NCI-H522; 29.1 µM (inactive) in the assay on 786-0. Besides, the values for the GI50 in the assay with MCF7 and in the assay on LOX IMVI were 91.6 µM (inactive) and > 56.8 µM (inactive), respectively.

As for `O=C(NCc1ccccc1)c1cc2ccc(O)c(O)c2cn1`, the GI50 with IGROV-1 is 23.7 µM (inactive); with SN12C it was 17.6 µM (inactive); with A549, 38.5 µM (inactive); in the assay on CAKI-1, 17.2 µM (inactive); in the assay with HOP-92, 19.1 µM (inactive); in the assay on TK-10 it was > 100 µM (inactive). Further, the GI50 in the assay on OVCAR-4 was 16.6 µM (inactive); in the assay on SNB-75, 17.8 µM (inactive); in the assay with SR it was 32.6 µM (inactive); in the assay on KM12, 33.2 µM (inactive); in the assay with HCC 2998, > 100 µM (inactive); in the assay on SNB-78 it was 18.1 µM (inactive). Besides, the GI50 in the assay with NCI-H226 was 40 µM (inactive); in the assay on HCT-116 it was 17.7 µM (inactive); in the assay on SK-MEL-5, 11.1 µM (inactive); with NCI-H522, 16.6 µM (inactive); in the assay on 786-0, 18 µM (inactive); in the assay on LOX IMVI, 3.82 µM (inactive).

Regarding `N#Cc1cccc(C2SCc3nc4ccccc4n32)c1` (stereo unspecified), the GI50 in the assay with IGROV-1 is 32.9 µM (inactive); in the assay with SN12C, 75.9 µM (inactive); in the assay on A549 it was 92.7 µM (inactive); in the assay with CAKI-1, 32.4 µM (inactive); in the assay with HOP-92, 36.3 µM (inactive); in the assay with TK-10 it was > 100 µM (inactive). In addition, the GI50 is 86.7 µM (inactive) with OVCAR-4; 38.4 µM (inactive) in the assay with SR; > 100 µM (inactive) in the assay with KM12; > 100 µM (inactive) with SNB-78; 28.9 µM (inactive) in the assay on NCI-H226; 19.8 µM (inactive) with SK-MEL-5. For the same molecule, the GI50 was 69.3 µM (inactive) in the assay on NCI-H522, > 100 µM (inactive) in the assay on 786-0 and > 100 µM (inactive) in the assay on LOX IMVI.

Regarding `O=Cn1c2ccccc2c2ccccc21`, the GI50 with IGROV-1, in the assay on SN12C, in the assay with A549, with HOP-92, in the assay on TK-10 and with SR was > 100 µM (inactive) in each case. Besides, the GI50 with KM12, in the assay on HCC 2998, in the assay on SNB-78, in the assay on HCT-116, in the assay with SK-MEL-5 and in the assay with NCI-H522 was > 100 µM (inactive) in each case. For the same molecule, the GI50 in the assay on 786-0 and in the assay with LOX IMVI was > 100 µM (inactive) in each case.
